Patent US20100137403A1, “METHOD FOR ENHANCING COGNITION OR INHIBITING COGNITIVE DECLINE” (priority 2008, published 2010)
“Also recorded” adds a separate entry of the source. Where two headings read alike, the source gives them in different places.

Legend:
mice = test: Lethality of phenylalkylamine Ca2+ channel blockers in mice; assay type: in vivo; conditions: 10 mg/kg i.v.
Excerpt: […]. The doses administered for these studies were selected to reflect the previously characterized potency of each of the drugs on blocking L-type Ca^2+ channel function. […].

[1] = system: nucleus basalis magnocellularis lesioned rats; conditions: cited from earlier work
young adult mice = conditions: cited from earlier work
mouse cerebellar neurons = conditions: cited from earlier work
NF-κB [2] = test: In vivo bio-photonic imaging of NF-κB luciferase reporter transgenic mice; design: species or system mouse; conditions: for NF-κB activation in the brain: Example 4
Procedure: The animal used to establish this criterion is preferably a laboratory animal, more preferably a rodent, illustratively a mouse. […] In this technique, a test compound, in this case a Ca^2+ channel blocker, is administered by intravenous (i.v.) injection to transgenic mice having a firefly luciferase reporter driven by one or more NF-κB response elements fused to the reporter (NF-κB::LUC mice). NF-κB expression, nuclear translocation and binding to the response elements in any anatomical or sub-anatomical region of a mouse results in activation of the luciferase reporter in that region. Activated luciferase, in presence of a luciferin substrate, emits light which can be detected and quantitated, and can be used in whole-body imaging to identify specific anatomical or sub-anatomical regions where the luciferase is activated as a result of NF-κB expression. Mice can be anesthetized and imaged at time intervals after administration of the test compound to reveal temporal as well as spatial distribution of NF-κB expression.
In vivo bio-photonic imaging was used to investigate temporal and spatial modulation of physiological processes following acute tiapamil administration to mice. For these studies we employed an NF-κB luciferase transgenic line that was constructed using three NF-κB response elements fused to a firefly luciferase reporter gene. The effect of tiapamil on NF-κB activation was monitored as modulation of detectable luciferase reporter activity, a surrogate for NF-κB activation and nuclear translocation with subsequent binding to the response elements of the reporter. Luciferase activity was detected by its ability to cleave luciferin, a luciferase substrate. Light emitted was detected and analyzed using a highly sensitive CCD imaging system.
For the present study, female NF-κB transgenic mice (5 per treatment) received tiapamil i.v. at 1 or 10 mg/kg in a saline vehicle, or vehicle control. At 2, 4 and 6 hours after administration, the animals were anesthetized and imaged. Visual and quantitative analysis was then performed based on counting photons of light emitted from specific anatomical regions. […] The data are depicted quantitatively in FIG. 1.

NF-κB [3] = test: as above; design: species or system mouse; conditions: for NF-κB activation in brain (dorsal brain images): Example 3
[4] = in vivo; cited from earlier work
C57BL/6 mice [5] = test: Spontaneous alternation task (SAT) test of short-term memory in T-maze; assay type: in vivo, mouse; conditions: for alternation (short-term memory) in healthy mice / alternation (short-term memory) in scopolamine-treated mice: 30 mg/kg i.p. 8 hours prior to the SAT; for alternation (short-term memory) in healthy mice: administered alone; for alternation (short-term memory) in scopolamine-treated mice: scopolamine 1 mg/kg i.p. 30 minutes prior
C57BL/6 mice [6] = conditions: general statement on the SAT test; cited from earlier work
NF-κB [7] = test: Luciferase imaging of 1 mm coronal brain sections from NF-κB transgenic mice; assay type: in vivo, mouse; conditions: 1 and 10 mg/kg, 6-hour time point
Excerpt: Evaluation of tiapamil in the NF-κB transgenic mouse line was repeated essentially as described in Example 1 and whole-body images were collected at the 6-hour time point. Brains were rapidly removed, chilled in ice-cold saline and sliced into 1 mm coronal sections. The sections were then placed onto glass slides, covered with luciferin solution (Luciferase Assay System substrate, Promega) and subsequently imaged in an IVIS 200 imaging system (Caliper Corp.) to evaluate effect of tiapamil on regional distribution of luciferase activity in the brain.

Sprague-Dawley rats = test: Novel object recognition (NOR) test of long-term memory; assay type: in vivo, rat
Excerpt: The novel object recognition (NOR) paradigm is a rodent model of recognition learning memory retrieval and takes advantage of the spontaneous behavior of rodents to investigate a novel object by comparison with a familiar object (Ennaceur & Delacour (1988) Behav Brain Res. 31:47-59). NOR has been employed extensively to indicate potential cognition-enhancing properties of test compounds.
The objective of this study was to test cognition-enhancing properties of tiapamil using the NOR test of long-term memory in healthy male rats. Adult male Sprague-Dawley rats were used in this study. Animals were placed in the experimental rooms at postnatal day 80 and assigned unique identification numbers (tail marked). Pairs were housed in polycarbonate cages with filter tops and acclimated for 7 days prior to commencing any studies. Animals were maintained in a 12 hour light/dark cycle with room temperature maintained at 22±2° C. with relative humidity maintained at approximately 50%. Food and water were provided ad libitum. All animals were examined, handled, and weighed for two days prior to initiation of the study to assure adequate health and suitability and to minimize non-specific stress associated with manipulation. Each animal was randomly assigned across treatment groups (8 animals per group) and balanced by cage numbers. […]
Tiapamil (10 or 30 mg/kg) was dissolved in saline and administered i.p. 1 or 8 hours prior to training. […] The rats were assessed for cognitive ability in a test apparatus comprising an open-field arena placed in a sound-attenuated room under dimmed lighting. […] All tests were video-scored blind. […] This 10-minute training period, T1, was recorded for subsequent analysis if necessary. […] After 24 hours, each rat was placed again in the test arena for 10 minutes (T2) in presence of a copy of the familiar object and a novel object, and the time spent exploring both objects was recorded. […] The NOR index was measured as the ratio of time spent exploring the novel object over total time spent exploring both objects (familiar+novel), during retention session T2.

COc1ccc(CCN(C)CCCC(C#N)(c2ccc(OC)c(OC)c2)C(C)C)cc1OC (centres unmarked) [verapamil]
Deaths (n = 5) (mice): 5 | acquisition and performance aspects of active avoidance ([1]; 2.5 and 5 mg/kg): improved | acquisition and performance aspects of active avoidance ([1]; lower (1 mg/kg) and higher (10 mg/kg) doses): ineffective | linear maze acquisition (young adult mice; at the most effective retention dose): failed to enhance acquisition | linear maze retention (young adult mice; young adult mice): enhancement effects at three doses | retention of passive avoidance learning (young adult mice; young adult mice): failed to facilitate retention | genetically-inhibited neurite extension (mouse cerebellar neurons; mouse cerebellar neurons): could restore | neuroprotection (mouse cerebellar neurons; normal neurons exposed to high concentrations of ethanol): neuroprotective

gallopamil
NF-κB activation in the brain (NF-κB [2]; 1 mg/kg i.v., 3 surviving animals, 1 mg/kg): induced NF-κB activation; also recorded: increased NF-κB expression in the brain | NF-κB activation in the brain (NF-κB [2]; 10 mg/kg i.v., surviving animals, 2, 4, 6 hours): minor to no change | NF-κB activation in brain (dorsal brain images) (NF-κB [3]; 0.5 mg/kg i.v., 2- and 4-hour time points): marginal effect | NF-κB activation in brain (dorsal brain images) (NF-κB [3]; 0.5 mg/kg i.v., 6-hour time point): more dramatic effect | efficacy on aspects of ischemic disease [4]: ineffective

O=C(O)c1cc(/N=N/c2ccc(S(=O)(=O)Nc3ccccn3)cc2)ccc1O [sulfasalazine]
effect on tiapamil-induced short-term memory enhancement (C57BL/6 mice [5]; sulfasalazine 3 mg/kg i.p. co-administered with tiapamil 30 mg/kg 8 hours prior to the SAT, healthy mice): loss of tiapamil's memory-enhancing effects | measureable NF-κB activity (NF-κB [3]; Example 5, co-administration of tiapamil and high-dose sulfasalazine): increased amount of measureable NF-κB activity | measureable NF-κB activity (NF-κB [3]; Example 5, high-dose sulfasalazine alone): increased amount of measureable NF-κB activity

CN1[C@@H]2C[C@@H](OC(=O)[C@H](CO)c3ccccc3)C[C@H]1[C@@H]1O[C@@H]12 [scopolamine]
spontaneous alternation (C57BL/6 mice [6]): impaired

COc1ccc(CCN(C)CCCC2(c3ccc(OC)c(OC)c3)S(=O)(=O)CCCS2(=O)=O)cc1OC [tiapamil, N-(3,4-dimethoxyphenethyl)-2-(3,4-dimethoxyphenyl)-N-methyl-m-dithian-2-propylamin-1,1,3,3-tetroxide]
NF-κB activation in the brain (NF-κB [2]; 10 mg/kg i.v., surviving animals, 2, 4, 6 hours, 10 mg/kg): robust effect; also recorded: substantially increased | NF-κB activation in peripheral anatomical regions (NF-κB [2]; i.v. 1 or 10 mg/kg): no effect | NF-κB expression in the head (NF-κB [2]; i.v. 1 or 10 mg/kg, 4 and 6 hours after treatment): dose-dependent increase | luciferase expression in all regions of the brain evaluated (NF-κB [7]): dramatic effect | alternation (short-term memory) in healthy mice (C57BL/6 mice [5]): enhances short-term memory | alternation (short-term memory) in healthy mice (C57BL/6 mice [5]; listed as Tiapamil): increased the number of alternation events | alternation (short-term memory) in scopolamine-treated mice (C57BL/6 mice [5]): reverses memory deficits | alternation (short-term memory) in scopolamine-treated mice (C57BL/6 mice [5]; listed as Tiapamil): prevented scopolamine-induced impairment | NOR index 24 hours after training (Sprague-Dawley rats; 10 mg/kg i.p., 1 hour): significantly increased NOR index | NOR index 24 hours after training (Sprague-Dawley rats; 10 mg/kg i.p., 8 hours): significantly increased NOR index | NOR index 24 hours after training (Sprague-Dawley rats; 30 mg/kg i.p.): not effective | NF-κB activation in brain (dorsal brain images) (NF-κB [3]; 10 mg/kg i.v., 2, 4 and 6 hours): robust effect | NF-κB signaling in the brain (light emission from head region, dorsal view) (NF-κB [3]; Example 5, i.p., 2, 4, 6 and 8 hours): enhanced | efficacy on aspects of ischemic disease [4]: ineffective

COc1cc2c(cc1OC)C(=O)C(CC1CCN(Cc3ccccc3)CC1)C2 (centres unmarked) [donepezil]
spontaneous alternation (C57BL/6 mice [6]): enhanced
